Reference: ChEMBL document CHEMBL3102695, “New melatonin (MT1/MT2) ligands: design and synthesis of (8,9-dihydro-7H-furo[3,2-f]chromen-1-yl) derivatives” (Bioorg Med Chem, 2014)
pEC50, pKi: −log10 of the molar value. Active and inactive are the calls of the source. No cut-off for these calls is given here.

Tests used:
[1] = Displacement of 2-[I]iodomelatonin from human melatonin MT1 receptor after 120 mins
[2] = Intrinsic activity at human melatonin MT2 receptor expressed in CHO cells assessed as [35S]GTPgammaS binding after 1 hr relative to melatonin; assay type: functional
[3] = Displacement of 2-[I]iodomelatonin from human melatonin MT2 receptor after 120 mins
[4] = Intrinsic activity at human melatonin MT1 receptor expressed in CHO cells assessed as [35S]GTPgammaS binding after 1 hr; assay type: functional, cell-based
[5] = Intrinsic activity at human melatonin MT2 receptor expressed in CHO cells assessed as [35S]GTPgammaS binding after 1 hr; assay type: functional, cell-based
[6] = Intrinsic activity at human melatonin MT1 receptor expressed in CHO cells assessed as [35S]GTPgammaS binding after 1 hr relative to melatonin; assay type: functional
[7] = test system: Rattus norvegicus; experiment: Decrease of anticipation of social defeat in rat assessed as reduction of duration of immobility and vocalization at 40 mg/kg, ip; assay type: functional, organism-based; design: dose 40 mg/kg
[8] = test system: Mus musculus; experiment: Increase of resynchronization of activity rhythm in C3H/he mouse at 20 mg/kg, ip; assay type: functional; details: route intraperitoneal
[9] = test system: Mus musculus; experiment: Anxiolytic activity in C3H/he mouse assessed as increase in time spent in light box at 10 to 40 mg/kg, po by light/dark box test; assay type: functional, organism-based
[10] = test system: Mus musculus; experiment: Anxiolytic activity in C3H/he mouse assessed as increase in number of transitions at 10 to 40 mg/kg, po by light/dark box test; assay type: functional, organism-based
[11] = test system: Mus musculus; experiment: Increase of neophobia in C3H/he mouse assessed as time spent in unfamiliar compartment at 1 to 25 mg/kg, po; assay type: functional, organism-based
[12] = test system: Mus musculus; experiment: Increase of neophobia in C3H/he mouse assessed as time spent in unfamiliar compartment at 1 to 10 mg/kg, po; assay type: functional, organism-based
[13] = test system: Mus musculus; experiment: Anxiolytic activity in C3H/he mouse assessed as increase in number of transitions at 20 to 40 mg/kg, po by light/dark box test; assay type: functional, organism-based
[14] = test system: Mus musculus; experiment: Anxiolytic activity in C3H/he mouse assessed as increase in time spent in light box at 20 to 40 mg/kg, po by light/dark box test; assay type: functional, organism-based

Structure (SMILES)	pKi [1]	Emax [2] [%]	pKi [3]	pEC50 [4]	pEC50 [5]	Emax [6] [%]	further results
C=Cc1oc2ccc3c(c2c1CCNC(C)=O)CCCO3	10.30	120	9.70	10.10	9.68	113	–
CC(=O)NCCc1coc2cc(Cc3cccc(C(F)(F)F)c3)c3c(c12)CCCO3	8.05	–	7.89	–	–	–	–
CC(=O)NCCc1coc2cc(C(=O)c3cccc(C(F)(F)F)c3)c3c(c12)CCCO3	7.47	–	7.54	–	–	–	–
C=CCC(=O)NCCc1coc2ccc3c(c12)CCCO3	10.15	57	10.10	8.60	8.82	68	–
COc1ccc2occ(CCNC(C)=O)c2c1	9.80	101	–	8.26	9.15	118	–
O=C(CI)NCCc1coc2ccc3c(c12)CCCO3	10.15	78	10.10	9.70	10.00	121	–
CC(=O)N(C)CCc1coc2ccc3c(c12)CCCO3	7.85	–	7.89	< 5.00	< 5.00	–	–
COc1ccc(C(=O)c2oc3ccc4c(c3c2CCNC(C)=O)CCCO4)cc1	6.98	–	8.57	–	–	–	–
CCCCNC(=S)NCCc1coc2ccc3c(c12)CCCO3	7.64	–	7.34	–	–	–	–
C=CCc1oc2ccc3c(c2c1CCNC(C)=O)CCCO3	10.52	109	9.92	9.82	10.10	104	–
C/C=C/C(=O)NCCc1coc2ccc3c(c12)CCCO3	8.89	65	8.59	7.21	7.85	92	–
CCCC(=O)c1oc2ccc3c(c2c1CCNC(C)=O)CCCO3	9.01	–	10.00	–	–	–	–
COc1ccccc1C(=O)c1oc2ccc3c(c2c1CCNC(C)=O)CCCO3	7.28	–	7.89	–	–	–	–
CC(=O)NCCc1c(-c2cccc(O)c2)oc2ccc3c(c12)CCCO3	9.06	93	9.68	8.34	9.68	46	–
COc1ccc(C(=O)c2cc3occ(CCNC(C)=O)c3c3c2OCCC3)cc1	5.27	–	5.41	–	–	–	–
COc1cccc(-c2oc3ccc4c(c3c2CCNC(C)=O)CCCO4)c1	9.48	68	9.52	8.74	9.70	30	–
CC(=O)NCCc1c(C(=O)c2cccc(C(F)(F)F)c2)oc2ccc3c(c12)CCCO3	6.49	44	8.59	< 5.00	7.80	–	–
CC(=O)NCCc1coc2ccc3c(c12)CCCO3	9.51	68	9.23	9.10	9.72	98	Activity [7]: Active; Activity [8]: 30%; Activity [9]: Active; Activity [10]: Active; Activity [11]: Active
S=C(NCCc1coc2ccc3c(c12)CCCO3)NC1CC1	8.25	46	8.13	6.84	7.42	42	–
COc1ccccc1C(=O)c1cc2occ(CCNC(C)=O)c2c2c1OCCC2	6.08	–	–	–	–	–	–
CCCCNC(=O)NCCc1coc2ccc3c(c12)CCCO3	7.30	–	7.64	–	–	–	–
CC(=O)NCCc1coc2cc(C(=O)c3ccccc3)c3c(c12)CCCO3	7.36	–	7.40	–	–	–	–
COc1cccc(C(=O)c2oc3ccc4c(c3c2CCNC(C)=O)CCCO4)c1	6.89	–	9.08	–	–	–	–
CCCNC(=S)NCCc1coc2ccc3c(c12)CCCO3	8.27	–	8.36	–	–	–	–
CC(=O)NCCc1c(-c2ccccc2)oc2ccc3c(c12)CCCO3	10.40	104	9.85	9.92	10.15	107	–
CCCNC(=O)NCCc1coc2ccc3c(c12)CCCO3	8.89	–	9.13	–	–	–	–
C=CC(=O)NCCc1coc2ccc3c(c12)CCCO3	9.96	74	9.42	7.89	7.29	80	–
COc1cccc(C(=O)c2cc3occ(CCNC(C)=O)c3c3c2OCCC3)c1	7.46	58	7.10	6.34	6.83	56	–
CC(=O)NCCc1c(-c2cccc(CO)c2)oc2ccc3c(c12)CCCO3	8.66	67	9.17	8.07	9.52	32	–
COc1ccc2[nH]cc(CCNC(C)=O)c2c1 [MELATONIN]	9.64	–	–	8.77	9.40	–	Activity [12]: Active; Activity [13]: Active; Activity [14]: Active
